Reference: patent publication US11884675B2, “Heterocyclic compounds as triggering receptor expressed on myeloid cells 2 agonists and methods of use” (AMGEN INC., priority 2020, dated 2024)

Molecular target: hTREM2 (Homo sapiens, UniProt Q9NZC2)
Assay: TREM2 activity by cellular Syk phosphorylation (AlphaScreen/AlphaLISA) in TREM2/DAP12-HEK cells, used for Examples 1-305
Type: cell-based
Set-up: expressed in transfected cells
Details: HEK293 Cells
Description: In vitro Measurement of Triggering Receptor Expressed on Myeloid Cells 2 activity using cellular phosphorylation of Spleen Tyrosine Kinase (“Syk”) Assays used for Examples 1-305
Pharmacological measurements of TREM2 signaling through DAP12 were made with TREM2 and DAP12 overexpressing HEK293 cells stable cell lines that had been single-cell cloned (“TREM2/DAP12-HEK”). The readout of the TREM2 signaling utilized Perkin Elmer AlphaScreen/AlphaLISA technology monitoring the phosphorylation levels of the Syk kinase. TREM2/DAP12-HEK cell lines were cultured in DMEM-F12 (Corning 10-092-CM) supplemented with 1X Penicillin/Streptomycin (Corning 30-002-CI), 1X GlutaMAX (Gibco 35050-061), and 10% Fetal Bovine Serum (Life Technologies 10099) referred to as “HEK Culture Medium”. Suspensions of TREM2/DAP12-HEK cells were prepared in HEK Culture Medium and dispensed into 384-well poly-D-lysine coated microplates (Corning 354661) at a density of 20,000 cells/well using a Multidrop Combi peristaltic microplate dispenser (Thermo), 25 μL volume of cell suspension/well. Plates containing cells were then incubated for 20 hours in a humidified cell culture incubator at 37° C. with 5% CO2 (Thermo). After incubation, culture medium was removed from all wells of each microplate and replaced with 20 μL of “Assay Buffer” comprised of DMEM-F12 (Corning 10-092-CM) supplemented with 1X Penicillin/Streptomycin (Corning 30-002-CI) and 0.1% Pluronic F-68 Polyol (MP Biomedical 092750049) using a Bravo 384-well pipette-based liquid handling system (Agilent). Assay Buffer contained diluted test articles (in 1% final DMSO concentration for compounds) or 100 nM anti-human/mouse TREM2 antibody (R&D Systems MAB17291) as a positive control, or 100 nM or rat IgG2B isotype Ab as a negative control (R&D Systems MAB0061). The plates were incubated with test articles and controls for 45 minutes at room temperature and then the medium was aspirated/removed from each well of the plates. A Multidrop Combi peristaltic liquid handler (Thermo) was used to dispense 15 μL/well of “Cell Lysis Immunoassay Buffer”. The Cell Lysis Immunoassay Buffer contained M-PER Mammalian Protein Extraction Reagent (Pierce/ThermoFisher 78505), 1X Halt Phosphatase Inhibitor Cocktail (ThermoFisher #78427), 0.1875 nM anti-phospho-Syk (Tyr525/526) (C87C1) rabbit mAb (Cell Signaling Technologies catalog #2710), and 1.5 nM biotinylated Mouse anti-human Syk (4D10) antibody (BD Biosciences, catalog #624008). Plates were incubated for 1 hour at room temperature after the addition of the Cell Lysis Immunoassay Buffer. The Multidrop Combi liquid handler was used to dispense 15 μL of AlphaScreen Acceptor Bead Solution containing 7.5 μg/mL anti-rabbit IgG (Fc specific) AlphaLISA Acceptor Beads (Perkin Elmer AL104R) in 1X Immunoassay buffer (Perkin Elmer AL000F) to each well of the microplates. The plates were incubated for 2 hours at room temperature. Following the incubation with the AlphaLISA Acceptor Bead Solution, a Multidrop Combi liquid handler (Thermo) was used to dispense 15 μL of AlphaScreen Donor Bead Solution containing 30 μg/mL of AlphaScreen Streptavidin Donor beads (Perkin Elmer 6760002B) in 1X Immunoassay buffer (Perkin Elmer AL000F) to each well of the microplates. Microplates were incubated for 2 hours protected from light sources as the AlphaScreen reagents are light sensitive. Once the final incubation was completed, an AlphaScreen signal was acquired from the donor and acceptor beads using an Envision high throughput multi-modal microplate reader (Perkin Elmer) calibrated to the plate type with the AlphaScreen mirror and filter-set in 384-well mode, 680 nanometer excitation wavelength. The total measurement time per well was 550 milliseconds with a 180 millisecond excitation time. […]

Sequence of hTREM2 (Q9NZC2 19-230): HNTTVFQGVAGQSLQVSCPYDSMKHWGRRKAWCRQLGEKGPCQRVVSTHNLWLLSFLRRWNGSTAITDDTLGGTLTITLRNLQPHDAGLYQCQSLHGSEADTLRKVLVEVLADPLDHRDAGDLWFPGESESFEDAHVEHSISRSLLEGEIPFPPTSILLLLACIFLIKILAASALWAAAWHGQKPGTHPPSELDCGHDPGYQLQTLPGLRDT
Sequence of hTREM2 (O43914 22-113 partner): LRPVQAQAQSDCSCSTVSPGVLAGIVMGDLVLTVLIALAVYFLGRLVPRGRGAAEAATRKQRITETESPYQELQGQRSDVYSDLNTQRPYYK

| SMILES | EC50 | hTREM2 Emax |
| --- | --- | --- |
| Cc1nc2nc(N3CCO[C@@H]([C@@H]4CCOC4)C3)nc(-c3ccc(F)cc3F)c2nc1C (single isomer, unassigned) [Example 34] | 500 to 3000 nM | +++ (Emax>150 and ≤250) |
| Cc1nc2cc([C@H]3CCO[C@H](c4cnn(C)c4)C3)nc(-c3ccc(Cl)cc3F)c2nc1C (single isomer, unassigned) [Example 194] | 500 to 3000 nM | ++++ (Emax>250) |
| COc1cc([C@H]2CN(c3cc4nc(C)ccc4c(-c4ccc(Cl)cc4F)n3)CCO2)ccn1 [Example 149, 5-(4-chloro-2-fluorophenyl)-7-((2S)-2-(2-methoxy-4-pyridinyl)-4-morpholinyl)-2-methyl-1,6-naphthyridine] | 50 to 500 nM | ++++ (Emax>250) |
| Cc1ccc2c(C34CC(C(F)(F)F)(C3)C4)nc(N3CCO[C@@H](c4cnn(C5CC5)c4)C3)nc2n1 [Example 101, 2-((2S)-2-(1-cyclopropyl-1H-pyrazol-4-yl)-4-morpholinyl)-7-methyl-4-(3-(trifluoromethyl)bicyclo[1.1.1]pentan-1-yl)pyrido[2,3-d]pyrimidine] | 3000 to 100000 nM |  |
| Cc1cnc2c(C34CC(C(F)(F)F)(C3)C4)nc(N3CCO[C@@H](c4cnn(C5CC5)c4)C3)nc2n1 [Example 231, (S)-2-(1-cyclopropyl-1H-pyrazol-4-yl)-4-(7-methyl-4-(3-(trifluoromethyl)bicyclo[1.1.1]pentan-1-yl)pteridin-2-yl)morpholine] | ≤ 50 nM | +++ (Emax>150 and ≤250) |
| Cc1cnc2c(n1)nc(N1CCO[C@@H](c3cnn(C4CC4)c3)C1)nc2[C@H]1C[C@@H](C(F)(F)F)C1 [Example 12, 2-((2S)-2-(1-cyclopropyl-1H-pyrazol-4-yl)-4-morpholinyl)-7-methyl-4-(cis-3-(trifluoromethyl)cyclobutyl)pteridine] | 500 to 3000 nM | ++ (Emax>100 and ≤150) |
| Cc1nc2nc([C@H]3CCO[C@@H](c4cnn(C5CC5)c4)C3)nc(-c3ccc(F)cc3F)c2nc1C [Example 305, 2-((2R,4S)-2-(1-cyclopropyl-1H-pyrazol-4-yl)tetrahydro-2H-pyran-4-yl)-4-(2,4-difluorophenyl)-6,7-dimethylpteridine] | 50 to 500 nM | +++ (Emax>150 and ≤250) |
| Cc1nc2nc(N3CCO[C@@H](c4cnn(C)c4)C3)nc(C3CCCCC3)c2nc1C [Example 134, 4-cyclohexyl-6,7-dimethyl-2-((2S)-2-(1-methyl-1H-pyrazol-4-yl)-4-morpholinyl)pteridine] | 50 to 500 nM | + (Emax>45 and ≤100) |
| Cc1cc(Cl)ccc1-c1nc(N2CCO[C@@H](c3cnn(C)c3)C2)nc2nc(C)c(C)nc12 [Example 58, 4-(4-chloro-2-methylphenyl)-6,7-dimethyl-2-((2S)-2-(1-methyl-1H-pyrazol-4-yl)-4-morpholinyl)pteridine] | 50 to 500 nM | +++ (Emax>150 and ≤250) |
| Cn1cc([C@H]2CN(c3cc(-c4ccc(Cl)cc4F)c4cccnc4n3)CCO2)cn1 [Example 155, 4-(4-chloro-2-fluorophenyl)-2-((2S)-2-(1-methyl-1H-pyrazol-4-yl)-4-morpholinyl)-1,8-naphthyridine] | 500 to 3000 nM | ++ (Emax>100 and ≤150) |

The remaining lines, values ahead:

| EC50 | hTREM2 Emax | SMILES |
| --- | --- | --- |
| 50 to 500 nM | + (Emax>45 and ≤100) | Cc1nc2nc([C@@H]3C[C@@H](C)O[C@@H](c4cnn(C)c4)C3)cc(-c3ccc(Cl)cc3F)c2nc1C [Example 284, 8-(4-chloro-2-fluorophenyl)-2,3-dimethyl-6-((2R,4R,6R)-2-methyl-6-(1-methyl-1H-pyrazol-4-yl)tetrahydro-2H-pyran-4-yl)pyrido[2,3-b]pyrazine] |
| ≤ 50 nM | ++++ (Emax>250) | Cc1nc2nc(N3CCO[C@@H](c4cnn(C)c4)C3)cc(-c3ccc(Cl)cc3F)c2nc1C [Example 160, 8-(4-chloro-2-fluorophenyl)-2,3-dimethyl-6-((2S)-2-(1-methyl-1H-pyrazol-4-yl)-4-morpholinyl)pyrido [2,3-b]pyrazine] |
| ≤ 50 nM | + (Emax>45 and ≤100) | Cc1cc([C@H]2CN(c3nc4nc(C)ccc4c([C@H]4C[C@H](C(F)(F)F)C4)n3)CCO2)ccn1 [Example 99, 7-methyl-2-((2S)-2-(2-methyl-4-pyridinyl)-4-morpholinyl)-4-(trans-3-(trifluoromethyl)cyclobutyl)pyrido[2,3-d]pyrimidine] |
| ≤ 50 nM | +++ (Emax>150 and ≤250) | Cc1nc2nc(N3CCO[C@@H](c4cnn(C)c4)C3)cc(-c3ccc(F)cc3F)c2nc1C [Example 161, 8-(2,4-difluorophenyl)-2,3-dimethyl-6-((2S)-2-(1-methyl-1H-pyrazol-4-yl)-4-morpholinyl)pyrido [2,3-b]pyrazine] |
| ≤ 50 nM | ++++ (Emax>250) | Cc1nc2nc(N3CCO[C@@H](c4cnn(C)c4)C3)nc(-c3ccc(Cl)cc3F)c2nc1C [Example 21, 4-(4-chloro-2-fluorophenyl)-6,7-dimethyl-2-((2S)-2-(1-methyl-1H-pyrazol-4-yl)-4-morpholinyl)pteridine] |
| 50 to 500 nM | ++++ (Emax>250) | CCc1ccc2c(-c3ccc(F)cc3F)nc(N3CCO[C@@H](c4cnn(C)c4)C3)nc2n1 [Example 167, 4-(2,4-difluorophenyl)-7-ethyl-2((2S)-2-(1-methyl-1H-pyrazol-4-yl)-4-morpholinyl) pyrido[2,3-d]pyrimidine] |
| ≤ 50 nM | +++ (Emax>150 and ≤250) | Cc1ncc([C@@H]2CN(c3nc(-c4ccc(C(F)(F)F)nc4)c4nc(C)c(C)nc4n3)CCO2)cn1 [Example 295, (R)-4-(6,7-dimethyl-4-(6-(trifluoromethyl)pyridin-3-yl)pteridin-2-yl)-2-(2-methylpyrimidin-5-yl)morpholine] |
| ≤ 50 nM | +++ (Emax>150 and ≤250) | Cc1cc([C@H]2CN(c3nc(-c4ccc(Cl)cc4F)c4cc(C)c(C)nc4n3)CCO2)cnn1 (single isomer, unassigned) [Example 104] |
| ≤ 50 nM | + (Emax>45 and ≤100) | Cc1cc([C@H]2CN(c3nc(C45CC(C(F)(F)F)(C4)C5)c4ccc(C)nc4n3)CCO2)ccn1 [Example 102, 7-methyl-2-((2S)-2-(2-methyl-4-pyridinyl)-4-morpholinyl)-4-(3-(trifluoromethyl)bicyclo[1.1.1]pentan-1-yl)pyrido[2,3-d]pyrimidine] |
| ≤ 50 nM | +++ (Emax>150 and ≤250) | Cc1cc2c(-c3ccc(Cl)cc3F)nc([C@H]3CCO[C@@H](c4cnn(C)c4)C3)nc2nc1C (single isomer, unassigned) [Example 224] |
| ≤ 50 nM | +++ (Emax>150 and ≤250) | Cc1nc2nc(N3CCO[C@@H](c4cnn(C)c4)C3)nc(C3CCC4(CC3)CC4)c2nc1C [Example 137, 6,7-dimethyl-2-((2S)-2-(1-methyl-1H-pyrazol-4-yl)-4-morpholinyl)-4-(spiro[2.5]octan-6-yl)pteridine] |
| ≤ 50 nM | +++ (Emax>150 and ≤250) | Cc1cc([C@H]2C[C@@H](c3nc(-c4ccc(Cl)cc4F)c4nc(C)c(C)nc4n3)CCO2)ccn1 (single isomer, unassigned) [Example 207] |
| ≤ 50 nM | +++ (Emax>150 and ≤250) | Cc1ccc(-c2nc([C@H]3CCO[C@@H](c4cnn(C)c4)C3)cc3nc(C)c(C)nc23)c(F)c1 (single isomer, unassigned) [Example 196] |
| ≤ 50 nM | ++ (Emax>100 and ≤150) | Cc1cc([C@H]2CN(c3nc4nc(C)c(C)nc4c([C@H]4C[C@H](C(F)F)C4)n3)CCO2)ccn1 [Example 54, 4-(trans-3-(difluoromethyl)cyclobutyl)-6,7-dimethyl-2-((2S)-2-(2-methyl-4-pyridinyl)-4-morpholinyl)pteridine] |
